The values that follow come from patent US4698350A, “1-ethyl-6-fluoro-1,4-dihydro- 7-(2,6-dimethyl-4-pyridinyl)-4-oxo-3-quinolinecarboxylic acid and antibacterial use thereof” (Sterling Drug Inc., priority 1984, dated 1987).

In one experiment the test system is S. pyogenes. Kind of experiment: In vitro antibacterial activity. Type of experiment: cell-based. Conditions: 3 strains of S. pyogenes. Here is the method: (§1) Win 52,522 and Win 35,439 were solubilized in 0.1 ml of 0.5 N NaOH/mg of compound and diluted in sterile distilled water to 160 mcg/ml. Vancomycin and methicillin were solubilized in sterile distilled water to 1250 mcg/ml of base compound. The stock solutions were sterilized by filtration through membrane filters with a 0.45 μm pore size.
(§2) The bacterial cultures listed in Table I (hereinbelow) were grown overnight at 37° C. in MHB for all cultures except the Streptococcus strains. These were grown in BHI+10% NHS. The overnight broth cultures were adjusted to an optical density of 0.10 (650 nm, B L Spectronic 20) in sterile distilled water and subsequently diluted to 6.7×10^6 cells/ml in MHB or BHI+1% NHS.
(§3) Serial two-fold dilutions of the compound solutions were prepared in MHB (or in BHI+1% NHS for tests with Streptococci) and dispensed into 96-well microtiter trays in a volume of 0.1 ml/well using a Sandy Springs (Bellco Glass Co.) dispenser. The trays were then inoculated with 0.0015 ml of a suspension containing 6.7×10^6 cells/ml of the appropriate inoculum using a MIC-2000 inoculator (Dynatech Corp.) resulting in a final inoculum of approximately 1×10^4 cells/well or 1×10^5 cells/ml. The trays were incubated at 37° C. for 18-20 hours and the minimal inhibitory concentration (MIC), defined as the lowest concentration of compound to inhibit visible bacterial growth, was recorded.
(§4) After the MIC values were recorded, the contents in the microtiter trays were thoroughly mixed on a Bellco Mini-orbital Shaker (Bellco Glass Co.) for 3 min. at a setting of 8. A portion (0.0015 ml) from each well was then transferred via an MIC-2000 inoculator to plates containing MHA or BHI agar+10% NHS. The plates were incubated at 37° C. for 18-20 hrs. The minimal bactericidal concentration (MBC), defined as the lowest concentration of compound that prevented the formation of a recognizable colony on the agar surface, was recorded.

A further experiment concerns Escherichia coli Vogel. Kind of experiment: Mouse protection test, E. coli Vogel infection. Conditions: for ED50: Escherichia coli, 168 h, once one-half hour postinfection, read-out: Protective Dose 50% (95% Confidence Limits); for times more efficacious than Win 35,439: E. coli infection. Type of experiment: in vivo, ICR mice; Escherichia coli. Here is the method:
(§5) ICR mice, female, 18-20 grams each.
(§6) Solutions of Win 52,522 and Win 35,439 were prepared by dissolving the appropriate weight of drug in 0.3 to 0.4 ml of 1 N NaOH and then bringing the solutions to the desired volume with distilled water. Methicillin and vancomycin were dissolved directly in distilled water.
The culture was inoculated into 10 ml of Brain Heart Infusion broth and grown statically for 16 hours at 37° C. Fresh tubes of the same broth were inoculated with 0.1 ml portions of the 16 hour broth culture and incubation continued for 5 hours at 37° C. The 5 hour broth culture was finally diluted with saline to provide the test inoculum containing 4.0×10^7 cells/ml.
(§7) Mice were inoculated intraperitoneally with 0.5 ml of the bacterial test inoculum.
Mice were medicated subcutaneously or orally once (0.5 ml) one-half hour postinfection.
(§8) Deaths were recorded daily for seven days for all tests. Fifty percent protective dose values (PD50's) were calculated using probit analysis [SAS Users Guide: Statistics, 1982 Edition, SAS Institute, Inc., Cary, N.C.].

For another experiment, the system named is Gram-positive cocci. In words: In vitro antibacterial activity. Type of experiment: cell-based, S. aureus, S. epidermidis and Streptococcus species. Here is the method: as §1, §2
as §3, with “recorded. […]” for “recorded.”

The test system of experiment [1] is all thirteen of the target anaerobic microorganisms. Kind of experiment: Antimicrobial activity against anaerobic microorganisms. Type of experiment: cell-based. On the procedure:
1. Maintenance. Prior to use, all strains were maintained in the lyophilized state. During the study, cultures were examined on blood agar basal medium supplemented with 5.0% (v/v) defibrinated rabbit blood. Culture transfer was accomplished weekly with all cultures being incubated in an anaerobic atmosphere (GasPak jar; BBL).
2. Agar Medium. The basal test medium consisted of trypticase soy agar (40 g), yeast extract (1 g), glucose (2 g) and 960 ml of distilled water pH 7.2. [Mashimo et al., J. Clin. Micro. 17, 187-191 (1983)]. Subsequent to sterilization and cooling to 50° C., the medium was supplemented with 4% (v/v) defibrinated rabbit blood and 0.5 μg/ml menadione (Vitamin K3) The agent under evaluation was also added at this time to the concentration desired. Subsequent to pouring of the plates, they were permitted to dry at 4° C. for 24 hr.
3. Determination of Agent MIC. The minimal inhibitory concentration (MIC) of the various test agents was determined using an agar dilution technique. Agents and appropriate reference compounds were added to achieve a series of concentrations ranging between 32 μg/ml and 0.007 μg/ml. The inocula were prepared from 96-hr. cultures grown on the maintenance medium. Subsequent to a purity evaluation, colonies were removed and suspended in trypticase soy broth supplemented with 5 μg/ml menadione and 2% lysed rabbit blood filtrate to achieve an OD650 of 0.1 (this corresponded to approximately 10^8 cells/ml). Cultures were inoculated aerobically on the modified trypticase soy blood agar plates by use of a Steer's replicator (which delivers about 10^5 cells per spot). The plates were allowed to dry for a time not exceeding 30 min. and then incubated at 37° C. under an atmosphere of […], 10% H2 and 5% CO2 maintained in an anaerobic chamber (Coy Manufacturing Co.) for 48 hr. The MIC was defined as the lowest concentration completely inhibiting growth.
Tetracycline stock solutions (1 mg/ml) were made subsequent to dissolution in water. Stock solutions (1 mg/ml) of the remaining test compounds were made subsequent to dissolution in 1/10 N NaOH.

The test system of experiment [2] is all 39 bacterial test strains. Kind of experiment: In vitro antibacterial activity. Type of experiment: cell-based. Here is the method: as §1, §2, §3, §4
Experiment [3] concerns S. pyogenes and S. pneumoniae. Kind of experiment: In vitro antibacterial activity. In kind it is cell-based. Here is the method: as §1, §2, §3, §4
In experiment [4] the test system is penicillin-sensitive and methicillin-resistant Staphylococcus aureus strains. In words: Mouse protection tests, S. aureus infections. In kind it is in vivo, ICR mice; Staphylococcus aureus. Particulars: subcutaneous and oral routes, mice. Here is the method:
as §5, §6, §7, §8

The subject of a further experiment is S. faecalis. In words: In vitro antibacterial activity. Type of experiment: cell-based. Particulars: all 4 strains of S. faecalis. On the procedure: as §1, §2, §3, §4
The test system of another experiment is S. pneumoniae. Kind of experiment: In vitro antibacterial activity. Type of experiment: cell-based. Particulars: one strain of S. pneumoniae. Here is the method: as §1, §2, §3, §4

Entries after “also recorded” stand apart in the source; their conditions may differ. Structures can show the parent of a compound that is named as a salt. Where two headings read alike, the source gives them in different places.

As to `CCn1cc(C(=O)O)c(=O)c2ccc(-c3cc(C)nc(C)c3)cc21` [Win 35,439, 1-ethyl-1,4-dihydro-7-(2,6-dimethyl-4-pyridinyl)-4-oxo-3-quinolinecarboxylic acid], the bactericidal / bacteriostatic entry in the experiment with S. pyogenes is given as “bacteriostatic”. Also, the Survivors/Total in the experiment with Escherichia coli Vogel (3.13 mg/kg po) was 0/10; in the experiment on Escherichia coli Vogel (3.13 mg/kg sc) it was 1/10; in the experiment on Escherichia coli Vogel (6.25 mg/kg po), 0/10; in the experiment with Escherichia coli Vogel (6.25 mg/kg sc) it was 0/10; in the experiment with Escherichia coli Vogel (12.5 mg/kg po) it was 2/10; in the experiment on Escherichia coli Vogel (12.5 mg/kg sc), 4/10. The Survivors/Total in the experiment on Escherichia coli Vogel (25 mg/kg po) is recorded as 9/10; in the experiment with Escherichia coli Vogel (25 mg/kg sc) it was 10/10. The ED50 in the experiment with Escherichia coli Vogel (po, po) worked out at 16.5 mg/kg; in the experiment with Escherichia coli Vogel (sc, sc), 13.5 mg/kg.
As for `CCn1cc(C(=O)O)c(=O)c2cc(F)c(-c3cc(C)nc(C)c3)cc21` [Win 52,522, 1-ethyl-6-fluoro-1,4-dihydro-7-(2,6-dimethyl-4-pyridinyl)-4-oxo-3-quinolinecarboxylic acid], in the experiment on Gram-positive cocci (several Gram-positive cocci), the “times more potent in vitro than Win 35,439” value is listed as 2-8 times. In addition, the “antimicrobial activity (in words)” value in [1] was “high activity against all thirteen of the target anaerobic microorganisms; also recorded: extremely active against a number of anaerobic microorganisms; also recorded: markedly superior to both Win 35,213 and 35,439; also recorded: broad spectrum of antimicrobial activity, comparing favorably with the currant antibiotic of choice, tetracycline”. The MBC/MIC in [2] (all Gram-positive and Gram-negative test strains) is on record as not above 4. Besides, the bactericidal / bacteriostatic entry in experiment [2] (all test strains) is “bactericidal”. In addition, the “times less potent than methicillin” value in [3] was 2-8 times. Moreover, the “in vivo efficacy (in words)” value in experiment [4] is “more efficacious than Win 35,439; also recorded: very potent antibacterial agent”. Also, the Survivors/Total in the experiment with Escherichia coli Vogel (1.56 mg/kg po) is on record as 0/10; with Escherichia coli Vogel (1.56 mg/kg sc), 0/10; with Escherichia coli Vogel (3.13 mg/kg po), 0/10; in the experiment with Escherichia coli Vogel (3.13 mg/kg sc), 0/10; in the experiment with Escherichia coli Vogel (6.25 mg/kg po), 2/10; with Escherichia coli Vogel (6.25 mg/kg sc) it was 8/10. In addition, the Survivors/Total in the experiment on Escherichia coli Vogel (12.5 mg/kg po) is given as 9/10; in the experiment with Escherichia coli Vogel (12.5 mg/kg sc), 10/10; with Escherichia coli Vogel (25 mg/kg po) it was 10/10; in the experiment on Escherichia coli Vogel (25 mg/kg sc), 10/10. Moreover, the ED50 was 8.2 mg/kg in the experiment on Escherichia coli Vogel (po, po) and approximately 5.2 mg/kg with Escherichia coli Vogel (sc, sc). The “times more efficacious than Win 35,439” value amounted to 2.0 times with Escherichia coli Vogel (p.o.) and 2.6 times in the experiment with Escherichia coli Vogel (s.c.). Moreover, the “PD50 values relative to those of Win 35,439” value in the experiment with Escherichia coli Vogel (subcutaneous and oral) is recorded as “approximately one-half”.
Regarding `COc1cccc(OC)c1C(=O)N[C@@H]1C(=O)N2[C@@H]1SC(C)(C)[C@@H]2C(=O)O` [Methicillin, 6-(2,6-dimethoxybenzamido)penicillanic acid sodium salt], the bactericidal / bacteriostatic entry in the experiment on Gram-positive cocci (Gram-positive cocci) is reported as “bactericidal”.
As to `CN[C@H](CC(C)C)C(=O)N[C@H]1C(=O)N[C@@H](CC(N)=O)C(=O)N[C@H]2C(=O)N[C@H]3C(=O)N[C@H](C(=O)N[C@H](C(=O)O)c4cc(O)cc(O)c4-c4cc3ccc4O)[C@H](O)c3ccc(c(Cl)c3)Oc3cc2cc(c3O[C@@H]2O[C@H](CO)[C@@H](O)[C@H](O)[C@H]2O[C@H]2C[C@](C)(N)[C@H](O)[C@H](C)O2)Oc2ccc(cc2Cl)[C@H]1O` [Vancomycin], the bactericidal / bacteriostatic result with S. faecalis and with S. pneumoniae was “bacteriostatic” throughout.
